1 compound from patent US20130030055A1, “COMPOSITIONS AND METHODS FOR TREATING HAIR LOSS, HAIR THINNING, AND HAIR COLOR LOSS” (priority 2010, published 2013) can be followed below.

Data set [1] is described as follows: Open-label study: intraocular pressure measurements. Type of data set: in vivo, human. From the text: Subjects were instructed to apply bimatoprost 0.03% to the eyelid lash line once daily for 12 weeks using an applicator (Studio Basics Professional Tools Eye Applicators, Paris Presents Incorporated, Gumee, Ill.) for each upper eyelid each evening and, if necessary, to wipe the areas immediately around the eyelid afterward to remove excess medication. Periodic use of artificial tears was allowed, but only prior to administration of bimatoprost 0.03%.
Clinical Examinations. Assessments were conducted at baseline and at weekly study visits at weeks 1, 4, 8, 12 (end of treatment period), and 16 (post-treatment follow-up period). At each visit, subjects underwent a complete eye examination by an ophthalmologist that included intraocular pressure measurements, visual acuity, and biomicroscopy. Subjects were queried at each visit for adverse events and these were recorded by the investigator. The presence of periorbital darkening was noted and graded on a scale of 0 to 4, and adverse event data were collected at each visit during the treatment period.
Statistical Analyses. A 2-sided paired t-test was used to evaluate the intraocular pressure change from baseline, and the GEA change from week 1 to week 12 was compared using a Wilcoxon signed-rank test. Analysis of intraocular pressure was performed on a per-eye and per-subject basis. A significance level of 0.05 was used for all statistical tests. Categorical variables were summarized with frequency, count, and percentages.

The subject of a further data set is eyelashes. As to the kind of experiment: Open-label study: health outcomes questionnaires and verbal responses. Type of data set: in vivo, human. From the text:
Subjects were instructed to apply bimatoprost 0.03% to the eyelid lash line once daily for 12 weeks using an applicator (Studio Basics Professional Tools Eye Applicators, Paris Presents Incorporated, Gumee, Ill.) for each upper eyelid each evening and, if necessary, to wipe the areas immediately around the eyelid afterward to remove excess medication. Periodic use of artificial tears was allowed, but only prior to administration of bimatoprost 0.03%. Health Outcomes Questionnaires. A questionnaire was used to track adverse events and to assess the subjects' satisfaction with treatment and their subjective evaluation of their eyelashes' appearance. Subjects were asked to answer all questions and return the questionnaire at weeks 4, 8, and 12. Subjects were also asked to respond verbally to 2 additional questions and their responses were recorded by site staff (FIGS. 1-4).

As for `CCNC(=O)CCC/C=C\C[C@@H]1[C@@H](/C=C/[C@@H](O)CCc2ccccc2)[C@H](O)C[C@@H]1O` [bimatoprost], in data set [1] (bimatoprost 0.03% once daily to eyelid lash line for 12 weeks, per eye), the “Mean change from baseline in intraocular pressure across all weeks (per eye)” value is listed as “+0.98 to −0.81 mm Hg”. Also, the “Mean change from baseline in intraocular pressure across all weeks (per subject)” value in data set [1] (bimatoprost 0.03% once daily to eyelid lash line for 12 weeks, per subject) is given as “+0.98 to −0.79 mm Hg”. Also, the “Mean change from baseline intraocular pressure at each time point” value in data set [1] (each time point) was “less than 1 mm Hg”. For the same compound, in data set [1] (week 1, P=0.0470), the “Per-eye intraocular pressure change from baseline” value is given as −0.81±2.72 mm Hg. The “Per-eye intraocular pressure change from baseline” value in data set [1] (week 4, P=0.0412) is 0.98±3.23. The “Clinical significance of changes in intraocular pressure” value in data set [1] (within accepted variability of the test) is reported as “not clinically significant”. Further, in the data set on eyelashes (16 respondents at week 12), the “Subjects who noticed changes in eyelashes by week 12” value was 3 subjects, the “Subjects who noticed changes in eyelashes within the first month” value is 3 subjects and the “Subjects who noticed changes in eyelashes within the first week” value is reported as “One”. For the same compound, in the data set on eyelashes (16 respondents at week 12 (9/16)), the “Respondents who had started to notice changes in their eyelashes by week 8” value worked out at 56.3%. For the same compound, the “Respondents indicating eyelashes were "improved" or "much improved"” value with eyelashes (by week 12, all respondents) was 16 respondents. Moreover, the “Respondents answering yes to "Do your eyes sting or burn upon application?"” value (“Respondents answering yes” for short) in the data set with eyelashes (week 4 (8/19)) came out at 42.2%. Moreover, the “Respondents answering yes” value in the data set with eyelashes (week 8 (6/18)) turned out to be 33.3%. For the same compound, the “Respondents answering yes” value in the data set on eyelashes (week 12 (4/15)) stood at 26.7%. For the same compound, in the data set with eyelashes (week 12 (12/16)), the “Respondents agreeing "very much/much" that they had done something positive for their appearance” value worked out at 75%. Moreover, the “Respondents agreeing "very much/much" that the treatment was helpful” value in the data set on eyelashes (week 12 (15/16)) came to 94%. Further, in the data set on eyelashes (week 12, 16 respondents), the “Subjects indicating both longer and thicker” value is on record as 1 subject; the “Subjects reporting all 3 options, longer, thicker, and darker” value is listed as 3 subjects. Also, the “Respondents choosing "longer" as the eyelash change they noticed most” value in the data set with eyelashes (week 12, Twelve of the 16 respondents) stood at 81.3%. Also, the “Respondents who had noticed growth or darkening of their eyelashes (verbal question)” value in the data set on eyelashes (week 12, all 23 respondents) came out at 100%. For the same compound, the “Respondents indicating yes at least once to sting or burn upon application” value in the data set on eyelashes (weeks 4, 8, 12) was found to be 10 respondents.
